Columns and labels:
[1] = test system: bovine RPE-choroid complex; assay: Water transport across ex vivo bovine RPE-choroid complex in Ussing-type chamber; format: cell-based
Experimental: The effect of DPOFA was examined in an ex vivo bovine RPE-choroid complex model.
Ringer's solution contained 120 mM NaCl, 5 mM KCl, 23 mM NaHCO3, 1 mM MgCl2, 1.8 mM CaCl2, 2.0 mM taurine, and 10 mM glucose at pH 7.4. The osmolariy of the solution was 295±5 mOsM. The solution was placed in the cell culture incubator set at 37° C. with 5% CO2. The solution was kept in the incubator for at least 2 says before use. Glutathione at final concentration of 1 mM was added to solutions minutes before the use in water transport experiments.
To prepare 5.5 ml of the 108 mM DPOFA stock solution, 220 mg of DPOFA was weighted. Four milliliters of water was added to the drug followed by addition of 104 microliters of 5M NaCl solution. Small magnetic stirring bar was placed to the drug suspension followed by immersion of the pH electrode. Slow addition of 1N NaOH solution began with careful pH monitoring. NaOH was added until pH reached the 7.2-7.4 range at which point the drug was completely dissolved. pH electrode and magnetic stirring bar were removed, and the volume was adjusted to 5.5 ml. The stock was aliquoted and stored at −20° C. Working DPOFA dilutions were made in Ringer's solution or in PBS.
An Ussing-type chamber was used to assess water transport across tissues preparations. Three hours before the experiment two Ussing-like chambers were assembled and filled with phosphate buffered saline. The cambers were placed on the thermo-jacketed stand to pre-warm the chambers to the 37° C.
Bovine eyes were obtained from the local abattoir and placed to the cold Ringer's solution containing 120 mM NaCl, 5 mM KCl, 23 mM NaHCO3, 1 mM MgCl2, 1.8 mM CaCl2, 2.0 mM taurine, and 10 mM glucose pH 7.4. Eyes were transferred to the lab within 2-3 hours after enucleation and rinsed repeatedly in Ringer's solution. Excessive muscle and connective tissue were trimmed at room temperature. The enucleated eye was dissected at pars plana, and the anterior portion was discarded along with the vitreous. If sensory retina detached during the removal of vitreous, the eye was considered unusable and was discarded. After the removal of vitreous, the posterior portion of the eye with the attached neuroretina was visually examined to locate the area not containing large blood vessels in the sclera. Using a size 13 brass cork bore, the selected area was punched through using a hammer.
The resulting tissue “button” was placed in a Petri dish containing Ringer's solution. The neuroretina was carefully peeled off and discarded. The flat circular sheet of the RPE-choroid tissue was carefully removed with forceps, placed on the flat spoon and transported to the Petri dish where the “basal” round window of the Ussing-type chamber (containing metal mesh) was placed and covered with Ringer's solution. The choroid-RPE circular sheet was placed on the metal mesh of the“basal” window with choroid side down. The RPE side of the RPE-choroid sheet was covered with the nylon mesh shown, followed by clipping with the “apical” portion of the Ussing-type chamber window.
The pre-warmed Ussing-like chambers were removed from the thermo-jacketed stand, freed from the PBS solution, and disassembled. […]
Pre-warmed Ringer's solution was added first to the apical side and then to the basal side of the chamber. The temperature within the chambers was checked and if it reached 35° C., the electrical resistance was measured using the modified electrode and the DVC-1000 Voltage/Current Clamp instrument (WPI, Inc.). […]

[2] = test system: glial cell; conditions: central nervous system; reported; cited from earlier work

CCC[C@]12CCC(=O)C=C1c1c(cc(OCC(=O)O)c(Cl)c1Cl)C2 [DPOFA, [(R)-(+)-(5,6-dichloro 2,3,9,9a-tetrahydro 3-oxo-9a-propyl-1H-fluoren-7-yl)oxy]acetic acid]
stimulation of water transport across the bovine RPE-choroid complex ([1]; ex vivo, apical to basal side, overall result): stimulated water transport | water transport at 6 μM compared with the higher concentrations ([1]; first experiment, FIG. 1, 6 μM vs 20 μM and 60 μM): more significant transport of water than 20 μM and 60 μM | transport of water from apical to basal side (upward shift of basal capillary meniscus) ([1]; first experiment, FIG. 1, 6 μM, 20 μM, 60 μM DPOFA): stimulated significant increase in transport of water | movement of water from apical to basal side ([1]; second experiment, FIG. 2, 6 μM, 20 μM, 60 μM DPOFA): increased the movement of water | concentration giving the strongest stimulation of water transport ([1]; second experiment, FIG. 2, 6, 20, 60 μM tested): 6 µM | inhibition of glial cell swelling and reactive gliosis [2]: effective inhibitor of glial cell swelling and reactive gliosis

From patent publication US20130189246A1, “TREATMENT OF OPHTHALMIC CONDITIONS WITH FLUORENONE DERIVATIVES” (The Trustees of Columbia University in the City of New York, priority 2009, published 2013)
